Each compound was assayed on human JAK1 (assay: In vitro JAK kinase assay (HTRF), JAK1). Conditions: ratio of JAK2 IC50 to JAK1 IC50 at 1 mM ATP.
Type: biochemical
Description: Compounds herein were tested for inhibitory activity of JAK targets according to the following in vitro assay described in Park et al., Analytical Biochemistry 1999, 269, 94-104. The catalytic domains of human JAK1 (a.a. 837-1142), JAK2 (a.a. 828-1132) and JAK3 (a.a. 781-1124) were expressed using baculovirus in insect cells and purified. The catalytic activity of JAK1, JAK2 or JAK3 was assayed by measuring the phosphorylation of a biotinylated peptide. The phosphorylated peptide was detected by homogenous time resolved fluorescence (HTRF). IC50s of compounds were measured for each kinase in the 40 μL reactions that contain the enzyme, ATP and 500 nM peptide in 50 mM Tris (pH 7.8) buffer with 100 mM NaCl, 5 mM DTT, and 0.1 mg/mL (0.01%) BSA. For the 1 mM IC50 measurements, ATP concentration in the reactions was 1 mM. Reactions were carried out at room temperature for 1 hour and then stopped with 20 μL 45 mM EDTA, 300 nM SA-APC, 6 nM Eu-Py20 in assay buffer (Perkin Elmer, Boston, Mass.). Binding to the Europium labeled antibody took place for 40 minutes and HTRF signal was measured on a PHERA star plate reader (BMG, Cary, N.C.). The Example compounds were each tested in the Example A assay (see Table 1 for data for the compounds of the examples as tested by the assay of Example A at 1 mM ATP).
In the case of `CC(C)c1nc2cnc3ccsc3c2n1[C@H]1CC[C@H](CC#N)OC1` [Example 42, [(2R,5S)-5-(2-Isopropyl-1H-imidazo[4,5-d]thieno[3,2-b]pyridin-1-yl)tetrahydro-2H-pyran-2-yl]acetonitrile], the JAK2/JAK1 is reported as >10. In the case of `N#CC[C@H]1CC[C@H](n2c(C3CC3)nc3cnc4ccsc4c32)CO1` [Example 43, [(2R,5S)-5-(2-Cyclopropyl-1H-imidazo[4,5-d]thieno[3,2-b]pyridin-1-yl)tetrahydro-2H-pyran-2-yl]acetonitrile], the JAK2/JAK1 is reported as >10. `C[C@@H](O)c1nc2cnc3ccsc3c2n1[C@@H]1CC[C@@H](CC#N)OC1` [Example 44, ((2S,5R)-5-{2-[(1R)-1-Hydroxyethyl]-1H-imidazo[4,5-d]thieno[3,2-b]pyridin-1-yl}tetrahydro-2H-pyran-2-yl)acetonitrile] was tested, and the JAK2/JAK1 was >10. For `C[C@H](O)c1nc2cnc3ccsc3c2n1[C@H]1CC[C@H](CC#N)OC1` [Example 45, ((2R,5S)-5-{2-[(1S)-1-Hydroxyethyl]-1H-imidazo[4,5-d]thieno[3,2-b]pyridin-1-yl}tetrahydro-2H-pyran-2-yl)acetonitrile], the JAK2/JAK1 was >10. For `CCc1nc2cnc3ccsc3c2n1[C@H]1CC[C@H](CC#N)CC1` [Example 47, [trans-4-(2-Ethyl-1H-imidazo[4,5-d]thieno[3,2-b]pyridin-1-yl)cyclohexyl]acetonitrile], the JAK2/JAK1 was >10. For `Cc1nc2cnc3ccsc3c2n1[C@H]1CC[C@H](CC#N)CC1` [Example 48, [trans-4-(2-Methyl-1H-imidazo[4,5-d]thieno[3,2-b]pyridin-1-yl)cyclohexyl]acetonitrile], the JAK2/JAK1 was >7. `C[C@@H](O)c1nc2cnc3ccsc3c2n1[C@H]1CC[C@@H](CC#N)C1.O=C(O)C(F)(F)F` [Example 49, ((1R,3S)-3-{2-[(1R)-1-Hydroxyethyl]-1H-imidazo[4,5-d]thieno[3,2-b]pyridin-1-yl}cyclopentyl)acetonitrile trifluoroacetate] was tested, and the JAK2/JAK1 was >10. In the case of `CCOC(=O)N1CCC[C@H](n2c([C@@H](C)O)nc3cnc4ccsc4c32)C1` [Example 50, Ethyl(3S)-3-{2-[(1R)-1-hydroxyethyl]-1H-imidazo[4,5-d]thieno[3,2-b]pyridin-1-yl}piperidine-1-carboxylate], the JAK2/JAK1 is reported as >10. In the case of `C[C@@H](O)c1nc2cnc3ccsc3c2n1[C@H]1CCCN(C(=O)CC#N)C1.O=C(O)C(F)(F)F` [Example 51, 3-((3S)-3-{2-[(1R)-1-Hydroxyethyl]-1H-imidazo[4,5-d]thieno[3,2-b]pyridin-1-yl}piperidin-1-yl)-3-oxopropanenitrile trifluoroacetate], the JAK2/JAK1 is reported as >10. `C[C@@H](O)c1nc2cnc3ccsc3c2n1[C@H]1CCCN(C(=O)CCC(F)(F)F)C1` [Example 52, (1R)-1-{1-[(3S)-1-(4,4,4-Trifluorobutanoyl)piperidin-3-yl]-1H-imidazo[4,5-d]thieno[3,2-b]pyridin-2-yl}ethanol] was tested, and the JAK2/JAK1 was >10. `C[C@@H](O)c1nc2cnc3ccsc3c2n1[C@H]1CCCN(C(=O)CCc2cn[nH]c2)C1` [Example 53, (1R)-1-(1-{(3S)-1-[3-(1H-Pyrazol-4-yl)propanoyl]piperidin-3-yl}-1H-imidazo[4,5-d]thieno[3,2-b]pyridin-2-yl)ethanol] was tested, and the JAK2/JAK1 was >10. In the case of `C[C@@H](O)c1nc2cnc3ccsc3c2n1[C@H]1CCCN(C(=O)CCc2cccnc2)C1` [Example 54, (1R)-1-{1-[(3S)-1-(3-Pyridin-3-ylpropanoyl)piperidin-3-yl]-1H-imidazo[4,5-d]thieno[3,2-b]pyridin-2-yl}ethanol], the JAK2/JAK1 is reported as >10. For `CC(CC(=O)N1CCC[C@H](n2c([C@@H](C)O)nc3cnc4ccsc4c32)C1)c1ccccc1` (stereo partly drawn) [Example 55, (1R)-1-{1-[(3S)-1-(3-Phenylbutanoyl)piperidin-3-yl]-1H-imidazo[4,5-d]thieno[3,2-b]pyridin-2-yl}ethanol], the JAK2/JAK1 was >10. With `C[C@@H](O)c1nc2cnc3ccsc3c2n1[C@H]1CCCN(CCC#N)C1` [Example 56, 3-((3S)-3-{2-[(1R)-1-Hydroxyethyl]-1H-imidazo[4,5-d]thieno[3,2-b]pyridin-1-yl}piperidin-1-yl)propanenitrile] the JAK2/JAK1 was >10.

Source: patent US9908895B2, “Tricyclic fused thiophene derivatives as JAK inhibitors” (Incyte Corporation, priority 2012, dated 2018)
